In article PMC10745346, “A Robust and Efficient FRET-Based Assay for Cannabinoid Receptor Ligands Discovery” (Molecules, 2023):
Where two headings read alike, the source gives them in different places.

Legend:
[1] = target: T1, human CB1R (Homo sapiens, UniProt P21554); assay: Competition radioligand binding assay, [3H]-CP55940, human CB1R
T1 construct: expressed in transfected cells
Procedure: CB1R competition binding experiments were carried out by employing cell membranes obtained from a stable CHO-hCB1 cell line. Cell membranes were prepared by washing the cells twice with phosphate buffered saline (PBS) and scraped from the plate in lysis buffer (5 mM Tris-HCl, 2 mM EDTA, pH = 7.4). Cell suspension was homogenized and centrifuged at 1000× g for 10 min at 4 °C. Supernatant was isolated and centrifuged at 48,000× g for 1 h at 4 °C. The membrane’s pellet was suspended in a storage buffer (50 mM Tris-HCl, pH = 7.4). The protein concentration of the cell membrane suspension was 4292 µg/mL.
Radioligand binding assays were performed in a polypropylene 96-well plate containing 20 μg of cell membranes, 1.25 nM [^3H]-CP55940 (101 Ci/mmol, 1 mCi/mL, Perkin Elmer NET1051250UC), and the compounds under study. Non-specific binding was determined in the presence of Surinabant 10 μM. The reaction mixture (Vt: 250 μL/well) was incubated at 30 °C for 60 min, 200 μL was transferred to a GF/B 96-well plate (Millipore, Madrid, Spain) and treated with binding buffer (50 mM Tris-HCl, 5 mM MgCl2, 1 mM EDTA, 0.5% BSA. pH: 7.4); afterward, it was filtered and washed four times with 250 μL wash buffer (50 mM Tris-HCl, 5 mM MgCl2, 1 mM EDTA, 0.5% BSA. pH: 7.4), before its measurement in a microplate beta scintillation counter (Microbeta Trilux, PerkinElmer, Madrid, Spain).

[2] = target: T2, human CB2R (Homo sapiens, UniProt P34972); assay: Competition radioligand binding assay, [3H]-CP55940, human CB2R
T2 construct: expressed in transfected cells
T2 sequence (P34972 whole entry): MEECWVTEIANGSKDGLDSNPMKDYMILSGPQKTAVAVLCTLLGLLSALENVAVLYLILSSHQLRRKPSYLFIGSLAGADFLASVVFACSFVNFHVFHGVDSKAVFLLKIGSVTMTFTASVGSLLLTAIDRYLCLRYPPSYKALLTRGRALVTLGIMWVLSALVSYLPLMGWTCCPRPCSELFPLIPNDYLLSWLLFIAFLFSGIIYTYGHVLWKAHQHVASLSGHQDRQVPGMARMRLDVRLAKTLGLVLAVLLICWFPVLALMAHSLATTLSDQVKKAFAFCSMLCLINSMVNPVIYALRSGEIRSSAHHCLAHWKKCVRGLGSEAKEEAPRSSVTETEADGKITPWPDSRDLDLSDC
Procedure: CB2R competition binding experiments were carried out by employing cell membranes obtained from a stable HEK-hCB2 cell line. Cell membranes were prepared by washing the cells twice in PBS and scraped from the plate in PBS. Cell suspension was centrifuged at 1500× g for 3 min at 4 °C. Cell pellet was suspended in lysis buffer (15 mM Tris-HCl, 2 mM MgCl2, 0.3 mM EDTA, 1 mM EGTA, pH = 7.5), homogenized, and centrifuged at 40,000× g for 25 min at 4 °C. Pellet was suspended in lysis buffer and centrifuged at 40,000× g for 1 h at 4 °C. The membrane’s pellet was suspended in storage buffer (7.5 mM Tris-HCl, 12.5 mM MgCl2, 0.3 mM EDTA, 1 mM EGTA, 250 mM sucrose, pH = 7.5). The protein concentration of the cell membrane suspension was 4781 µg/mL.
Radioligand binding assays were performed in a polypropylene 96-well plate containing 30 μg of membranes, […] (101 Ci/mmol, 1 mCi/mL, Perkin Elmer NET1051250UC), and the compounds under study. Non-specific binding was determined in the presence of GW405833 10 μM (Sigma G1421). The reaction mixture (Vt: 250 μL/well) was incubated at 30 °C for 90 min, 200 μL was transferred to GF/C 96-well plate (Millipore, Madrid, Spain), pre-treated with 0.5% of PEI, and treated with binding buffer (50mM Tris-HCl, 5mM MgCl2, 2.5 mM EGTA, 0.1% BSA. pH: 7.4); afterward, it was filtered and washed four times with 250 μL wash buffer (50mM Tris-HCl, 5mM MgCl2, 2.5 mM EGTA, 1% BSA. pH: 7.4), before its measurement in a microplate beta scintillation counter (Microbeta Trilux, PerkinElmer, Madrid, Spain).

[3] = target: T3, SNAP-CB2R (Homo sapiens, UniProt P34972); assay: Tag-lite competition binding assay with CELT-335, living cells expressing SNAP-CB2R
T3 construct: host or cells: HEK-293 cells, transient transfection (lipofectamine 2000), living adherent cells
T3 sequence (P34972 whole entry): as above

[4] = target: T4, SNAP-CB1R (Homo sapiens, UniProt P21554); assay: cell-based; format: binding
T4 construct: expressed in transfected cells; host or cells: HEK-293T cells, transient transfection (PEI), living cells
T4 sequence (P21554 whole entry): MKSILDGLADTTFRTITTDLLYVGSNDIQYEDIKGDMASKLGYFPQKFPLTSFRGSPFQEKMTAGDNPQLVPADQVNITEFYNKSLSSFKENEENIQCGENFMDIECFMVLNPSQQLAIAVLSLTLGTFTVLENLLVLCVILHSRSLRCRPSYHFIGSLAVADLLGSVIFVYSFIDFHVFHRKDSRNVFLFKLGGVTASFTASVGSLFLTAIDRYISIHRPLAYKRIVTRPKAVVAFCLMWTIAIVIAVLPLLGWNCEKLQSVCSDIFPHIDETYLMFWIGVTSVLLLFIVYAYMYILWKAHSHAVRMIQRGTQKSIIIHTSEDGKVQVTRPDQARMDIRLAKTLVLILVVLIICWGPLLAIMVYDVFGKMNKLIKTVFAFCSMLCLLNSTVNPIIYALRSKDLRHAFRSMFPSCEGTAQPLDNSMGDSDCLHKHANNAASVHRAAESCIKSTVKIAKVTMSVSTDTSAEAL

[5] = target: hCB2R; settings: literature value ref 32; cited from earlier work
[6] = target: CB1 receptor; settings: literature value ref 31; cited from earlier work
[7] = 100 nM CELT-335, test compound 0-10 μM, mean ± SEM, read-out: pKi CB1 Tag-Lite Binding (CELT-335) (converted)

T1 sequence (P21554 whole entry): as above

Row | SMILES | Ki [1] [nM] | Ki [2] [nM] | Ki [3] [nM] | Ki [4, 7] [nM] | Ki [4] [nM] | pKi CB2 Radioligand Binding [5] | pKi CB2 Tag-Lite Binding (CELT-335) [3] | pKi CB1 Radioligand Binding [6] | Ki ([1]; displacement of specific [3H]-CP55940 binding, mean ± SEM, read-out: pKi CB1 Radioligand Binding (converted)) [nM] | Ki ([2]; displacement of specific [3H]-CP55940 binding, mean ± SEM, read-out: pKi CB2 Radioligand Binding (converted)) [nM]
1 | CC(C)C(NC(=O)c1cn(Cc2ccc(F)cc2)c2ccccc12)C(N)=O (stereo not drawn) [AB-FUBICA] | 3.6 | 28.8 | 36.3 |  |  |  |  |  |  | 
2 | COC(=O)[C@@H](NC(=O)c1cn(Cc2ccc(F)cc2)c2ccccc12)C(C)C [AMB-FUBICA] | 47.9 | 20 | 21.9 | 117 |  |  |  |  |  | 
3 | CCCCCn1cc(C(=O)NC23CC4CC(CC(C4)C2)C3)c(=O)c2ccccc21 [Adamantyl-quinolone] | 49 |  |  |  | 79.4 | 7.78 [32] | 8.29 ± 0.11 |  |  | 
4 | COC(=O)C(NC(=O)c1cn(CC2CCCCC2)c2ccccc12)C(C)(C)C (stereo not drawn) [MDMB-CHMICA] |  |  | 2.34 | 8.13 |  |  |  | 9.38 [31] |  | 
5 | Cc1c(C(=O)NCc2cccnc2)nn(-c2ccc(Cl)cc2Cl)c1-c1ccc(Cl)cc1 [MJ15] |  |  | 324 | 36.3 |  |  |  |  | 63.1 | 692
